Measured values as given in US20020137929A1, “1 - (3-heterocyclylphenyl) isothiourea, -isourea, -guanidine and -amidine herbicidal agents” (Intellectual Property Department, BASF Aktiengesellschaft, priority 1998, published 2002).

What was measured:
GALAP (Galium) = assay: Preemergence herbicidal evaluation; assay type: in vivo, Galium aparine; details: rated 4-5 weeks after treatment
Summary of the method: (§1)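 Herbicidal effect scored visually, 0-9, at 4 to 5 weeks against a control; compound applied preemergence by aqueous acetone spray to seeded soil at about 0.0156 to 0.500 kg/ha.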

[1] = system: CHEAL (Lambsquarters, Common); assay: Postemergence herbicidal evaluation; assay type: in vivo, Chenopodium album
Summary of the method: (§2)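 Compound is applied as a foliar spray to seedlings about two weeks old, formulated in equal parts acetone and water with 0.5% TWEEN 20 and delivered at 40 psi to give about 0.0156–0.500 kg per hectare. Injury is rated visually 0–9 after four to five weeks.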

ORYSAT (Rice, Tebonnet) = assay: Postemergence herbicidal evaluation; assay type: in vivo, Oryza sativa, (L.) Tebonnet
Summary of the method: as §2

CYPSE (Flatsedge) [2] = assay: Preemergence weed control under flooded paddy conditions; assay type: in vivo, Cyperus serotinus; details: rated 3-4 weeks after treatment
Summary of the method: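 Using flooded silt loam (water 1.5 to 3 cm deep), seeds sown in the top 0.5 cm were exposed preemergence to compound pipetted into the flood at about 0.0313 to 0.500 kg/ha. Effects were scored 0-9 by eye three to four weeks later.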

AMBEL (Ragweed, Common) [3] = assay: Preemergence herbicidal evaluation; assay type: in vivo, Ambrosia artemisifolia; details: rated 4-5 weeks after treatment
Summary of the method: as §1

CYPIR (Rice Flatsedge) = assay: Postemergence weed control under flooded paddy conditions; assay type: in vivo, Cyperus iria; details: postemergence weeds, 3-4 weeks after treatment
Summary of the method: (§3)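 Herbicidal effect is judged by eye on a 0–9 scale versus control, 3–4 weeks after dosing. Dosing is into flood water kept 1.5–3 cm over the soil, at about 0.0313–0.500 kg/ha in aqueous/acetone 50/50 v/v, on 3–5 cm weeds and 1.5–2.5-leaf rice seedlings.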

[4] = system: CHEAL (Lambsquarters, Common); assay: Preemergence herbicidal evaluation; assay type: in vivo, Chenopodium album; details: rated 4-5 weeks after treatment
Summary of the method: as §1

ECHCG (Barnyardgrass) = assay: Postemergence herbicidal evaluation; assay type: in vivo, Echinochloa crus-galli
Summary of the method: as §2

CASOB (Sicklepod) = assay: Preemergence herbicidal evaluation; assay type: in vivo, Cassia obtusifolia; details: rated 4-5 weeks after treatment
Summary of the method: as §1

[5] = system: GLXMAW (Soybean, Williams); assay: Postemergence herbicidal evaluation; assay type: in vivo, Glycine max, (L.) Merr. cv Williams
Summary of the method: as §2

CYPSE (Flatsedge) [6] = assay: Postemergence weed control under flooded paddy conditions; assay type: in vivo, Cyperus serotinus; details: postemergence weeds, 3-4 weeks after treatment
Summary of the method: as §3

AMBEL (Ragweed, Common) [7] = assay: Postemergence herbicidal evaluation; assay type: in vivo, Ambrosia artemisifolia
Summary of the method: as §2

ABUTH (Velvetleaf) = assay: Postemergence herbicidal evaluation; assay type: in vivo, Abutilon theophrasti
Summary of the method: as §2

ZEAMX (Corn, Field) = assay: Postemergence herbicidal evaluation; assay type: in vivo, Zea mays
Summary of the method: as §2

Question: For `CCOC(=O)COc1ccccc1CC1S/C(=N/c2cc(-n3c(=O)cc(C(F)(F)F)n(C)c3=O)c(F)cc2Cl)N(CC(=O)OCC)C1=O` (stereo not shown) [Compound 42, 2-{{2-Chloro-5-[3,6-dihydro-3-methyl-2,6-dioxo-4-(trifluoromethyl)-1(2H)-pyrimidinyl]-4-fluoro-phenyl}imino}-5-(o-hydroxybenzyl)-4-oxo-3-thiazolidineacetic acid, ethyl ester, ester with ethyl glycolate], which “Preemergence herbicidal rating GALAP” value (GALAP (Galium); rate 0.0313 kg/ha) is on record?
Answer: 0.0

Question: What about the “Preemergence herbicidal rating GALAP” value (GALAP (Galium); rate 0.0625 kg/ha) of the same molecule?
Answer: 0.0

Question: And the “Preemergence herbicidal rating GALAP” value (GALAP (Galium); rate 0.1250 kg/ha)?
Answer: 0.0

Question: And the “Preemergence herbicidal rating GALAP” value (GALAP (Galium); rate 0.2500 kg/ha)?
Answer: 0.0

Question: And the “Postemergence herbicidal rating CHEAL” value ([1]; Rate 0.0158 kg/ha)?
Answer: 3.0

Question: And the “Postemergence herbicidal rating CHEAL” value ([1]; Rate 0.0315 kg/ha)?
Answer: 9.0

Question: And the “Postemergence herbicidal rating CHEAL” value ([1]; Rate 0.0630 kg/ha)?
Answer: 6.0

Question: And the “Postemergence herbicidal rating ORYSAT” value (ORYSAT (Rice, Tebonnet); Rate 0.0158 kg/ha)?
Answer: 2.5

Question: What about the “Postemergence herbicidal rating ORYSAT” value (ORYSAT (Rice, Tebonnet); Rate 0.0315 kg/ha) of the same molecule?
Answer: 2.5

Question: And the “Postemergence herbicidal rating ORYSAT” value (ORYSAT (Rice, Tebonnet); Rate 0.0630 kg/ha)?
Answer: 3.0

Question: And the “Herbicidal rating CYPSE” value (CYPSE (Flatsedge) [2]; 0.0313 kg/ha)?
Answer: 0.0

Question: And the “Herbicidal rating CYPSE” value (CYPSE (Flatsedge) [2]; 0.0625 kg/ha)?
Answer: 0.0

Question: And the “Herbicidal rating CYPSE” value (CYPSE (Flatsedge) [2]; 0.1250 kg/ha)?
Answer: 0.0

Question: And the “Herbicidal rating CYPSE” value (CYPSE (Flatsedge) [2]; 0.2500 kg/ha)?
Answer: 0.0

Question: What about the “Preemergence herbicidal rating AMBEL” value (AMBEL (Ragweed, Common) [3]; rate 0.0313 kg/ha) of the same molecule?
Answer: 0.0

Question: What about the “Preemergence herbicidal rating AMBEL” value (AMBEL (Ragweed, Common) [3]; rate 0.0625 kg/ha) of the same molecule?
Answer: 0.0

Question: And the “Preemergence herbicidal rating AMBEL” value (AMBEL (Ragweed, Common) [3]; rate 0.1250 kg/ha)?
Answer: 0.0

Question: And the “Preemergence herbicidal rating AMBEL” value (AMBEL (Ragweed, Common) [3]; rate 0.2500 kg/ha)?
Answer: 6.0

Question: What about the “Herbicidal rating CYPIR” value (CYPIR (Rice Flatsedge); rate 0.0313 kg/ha) of the same molecule?
Answer: 0.0

Question: What about the “Herbicidal rating CYPIR” value (CYPIR (Rice Flatsedge); rate 0.0625 kg/ha) of the same molecule?
Answer: 0.0

Question: And the “Herbicidal rating CYPIR” value (CYPIR (Rice Flatsedge); rate 0.1250 kg/ha)?
Answer: 0.0

Question: What about the “Herbicidal rating CYPIR” value (CYPIR (Rice Flatsedge); rate 0.2500 kg/ha) of the same molecule?
Answer: 0.0

Question: What about the “Preemergence herbicidal rating CHEAL” value ([4]; rate 0.0313 kg/ha) of the same molecule?
Answer: 0.0

Question: And the “Preemergence herbicidal rating CHEAL” value ([4]; rate 0.0625 kg/ha)?
Answer: 1.0

Question: And the “Preemergence herbicidal rating CHEAL” value ([4]; rate 0.1250 kg/ha)?
Answer: 3.0

Question: And the “Preemergence herbicidal rating CHEAL” value ([4]; rate 0.2500 kg/ha)?
Answer: 9.0

Question: And the “Postemergence herbicidal rating ECHCG” value (ECHCG (Barnyardgrass); Rate 0.0158 kg/ha)?
Answer: 1.0

Question: What about the “Postemergence herbicidal rating ECHCG” value (ECHCG (Barnyardgrass); Rate 0.0315 kg/ha) of the same molecule?
Answer: 2.0

Question: And the “Postemergence herbicidal rating ECHCG” value (ECHCG (Barnyardgrass); Rate 0.0630 kg/ha)?
Answer: 4.0

Question: And the “Preemergence herbicidal rating CASOB” value (CASOB (Sicklepod); rate 0.0313 kg/ha)?
Answer: 0.0

Question: What about the “Preemergence herbicidal rating CASOB” value (CASOB (Sicklepod); rate 0.0625 kg/ha) of the same molecule?
Answer: 1.0

Question: And the “Preemergence herbicidal rating CASOB” value (CASOB (Sicklepod); rate 0.1250 kg/ha)?
Answer: 0.0

Question: What about the “Preemergence herbicidal rating CASOB” value (CASOB (Sicklepod); rate 0.2500 kg/ha) of the same molecule?
Answer: 0.0

Question: And the “Postemergence herbicidal rating GLXMAW” value ([5]; Rate 0.0158 kg/ha)?
Answer: 5.5

Question: What about the “Postemergence herbicidal rating GLXMAW” value ([5]; Rate 0.0315 kg/ha) of the same molecule?
Answer: 6.0

Question: What about the “Postemergence herbicidal rating GLXMAW” value ([5]; Rate 0.0630 kg/ha) of the same molecule?
Answer: 6.5

Question: What about the “Herbicidal rating CYPSE” value (CYPSE (Flatsedge) [6]; rate 0.0313 kg/ha) of the same molecule?
Answer: 0.0

Question: What about the “Herbicidal rating CYPSE” value (CYPSE (Flatsedge) [6]; rate 0.0625 kg/ha) of the same molecule?
Answer: 0.0

Question: What about the “Herbicidal rating CYPSE” value (CYPSE (Flatsedge) [6]; rate 0.1250 kg/ha) of the same molecule?
Answer: 0.0

Question: What about the “Herbicidal rating CYPSE” value (CYPSE (Flatsedge) [6]; rate 0.2500 kg/ha) of the same molecule?
Answer: 0.0

Question: What about the “Postemergence herbicidal rating AMBEL” value (AMBEL (Ragweed, Common) [7]; Rate 0.0158 kg/ha) of the same molecule?
Answer: 9.0

Question: What about the “Postemergence herbicidal rating AMBEL” value (AMBEL (Ragweed, Common) [7]; Rate 0.0315 kg/ha) of the same molecule?
Answer: 9.0

Question: What about the “Postemergence herbicidal rating AMBEL” value (AMBEL (Ragweed, Common) [7]; Rate 0.0630 kg/ha) of the same molecule?
Answer: 9.0

Question: What about the “Postemergence herbicidal rating ABUTH” value (ABUTH (Velvetleaf); Rate 0.0158 kg/ha) of the same molecule?
Answer: 9.0

Question: What about the “Postemergence herbicidal rating ABUTH” value (ABUTH (Velvetleaf); Rate 0.0315 kg/ha) of the same molecule?
Answer: 9.0

Question: And the “Postemergence herbicidal rating ABUTH” value (ABUTH (Velvetleaf); Rate 0.0630 kg/ha)?
Answer: 9.0

Question: And the “Postemergence herbicidal rating ZEAMX” value (ZEAMX (Corn, Field); Rate 0.0158 kg/ha)?
Answer: 4.5

Question: And the “Postemergence herbicidal rating ZEAMX” value (ZEAMX (Corn, Field); Rate 0.0315 kg/ha)?
Answer: 4.5

Question: And the “Postemergence herbicidal rating ZEAMX” value (ZEAMX (Corn, Field); Rate 0.0630 kg/ha)?
Answer: 4.5
